# Key:
# HDAC6 human recombinant = target: T1, HDAC6 human recombinant (Homo sapiens, UniProt Q9UBN7); experiment: HDAC enzyme activity inhibition (in vitro), HDAC6 assay; assay type: biochemical; settings: samples at 0.1, 1, 10, 100 and 1000 nM; 37° C. 60 minutes; fluorescence Ex 390, Em 460; read-out: HDAC6 IC50
# T1 construct: purchased Calbiochem 382180
# T1 sequence (Q9UBN7 1-1215): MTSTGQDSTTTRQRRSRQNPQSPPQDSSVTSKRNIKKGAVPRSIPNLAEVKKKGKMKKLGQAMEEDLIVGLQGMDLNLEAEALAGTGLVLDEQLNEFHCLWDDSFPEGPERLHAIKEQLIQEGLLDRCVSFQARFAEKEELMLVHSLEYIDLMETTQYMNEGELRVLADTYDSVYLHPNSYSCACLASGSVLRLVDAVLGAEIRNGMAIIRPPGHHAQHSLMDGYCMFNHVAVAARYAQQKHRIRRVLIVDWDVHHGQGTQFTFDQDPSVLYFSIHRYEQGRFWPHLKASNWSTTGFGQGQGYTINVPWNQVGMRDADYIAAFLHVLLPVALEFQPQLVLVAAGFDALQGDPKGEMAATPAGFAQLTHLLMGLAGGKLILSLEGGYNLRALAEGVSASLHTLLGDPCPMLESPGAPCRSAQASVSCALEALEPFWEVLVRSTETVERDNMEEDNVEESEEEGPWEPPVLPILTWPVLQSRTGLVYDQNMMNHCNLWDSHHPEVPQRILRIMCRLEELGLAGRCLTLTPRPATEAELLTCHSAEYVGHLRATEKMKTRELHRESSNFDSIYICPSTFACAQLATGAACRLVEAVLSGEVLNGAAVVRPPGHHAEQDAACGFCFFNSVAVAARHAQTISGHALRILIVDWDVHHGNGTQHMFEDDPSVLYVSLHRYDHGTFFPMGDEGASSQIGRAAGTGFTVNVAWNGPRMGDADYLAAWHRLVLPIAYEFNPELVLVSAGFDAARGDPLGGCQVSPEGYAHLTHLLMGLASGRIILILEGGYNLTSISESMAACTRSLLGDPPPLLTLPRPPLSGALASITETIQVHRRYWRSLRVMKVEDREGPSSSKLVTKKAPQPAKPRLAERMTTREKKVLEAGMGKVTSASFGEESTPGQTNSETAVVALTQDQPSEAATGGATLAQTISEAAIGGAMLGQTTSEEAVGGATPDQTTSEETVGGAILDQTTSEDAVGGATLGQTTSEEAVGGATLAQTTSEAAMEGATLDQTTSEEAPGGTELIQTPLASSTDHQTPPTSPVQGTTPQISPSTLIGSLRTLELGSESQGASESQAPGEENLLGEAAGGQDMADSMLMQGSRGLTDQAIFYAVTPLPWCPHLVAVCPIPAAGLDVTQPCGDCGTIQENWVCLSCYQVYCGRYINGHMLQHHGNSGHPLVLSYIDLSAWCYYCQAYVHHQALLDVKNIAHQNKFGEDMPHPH
# How it was run: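 Fluorescence (Ex 390, Em 460) read after a 37° C, 60 min enzyme reaction and a further 30 min developer step at 37° C. Uses recombinant human HDAC6; HDAC1 arm dosed at 100, 1000, 10000 nM.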
# HDAC1 = target: T2, HDAC1 (Homo sapiens, UniProt Q13547); experiment: HDAC enzyme activity inhibition (in vitro), HDAC1 Fluorimetric Drug Discovery Assay Kit; assay type: biochemical; settings: samples at 100, 1000 and 10000 nM; 37° C. 60 minutes; fluorescence Ex 390, Em 460; read-out: HDAC1 IC50
# T2 construct: purchased Enzolifesciences BML-AK511
# How it was run: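 Fluorescence read-out (Ex 390/Em 460) after developer step, 30 min at 37° C, following a 60-min 37° C enzyme reaction. Test concentrations: HDAC1 kit, 100–10000 nM (three levels); recombinant human HDAC6, 0.1–1000 nM (five levels).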
# T2 sequence (Q13547 whole entry): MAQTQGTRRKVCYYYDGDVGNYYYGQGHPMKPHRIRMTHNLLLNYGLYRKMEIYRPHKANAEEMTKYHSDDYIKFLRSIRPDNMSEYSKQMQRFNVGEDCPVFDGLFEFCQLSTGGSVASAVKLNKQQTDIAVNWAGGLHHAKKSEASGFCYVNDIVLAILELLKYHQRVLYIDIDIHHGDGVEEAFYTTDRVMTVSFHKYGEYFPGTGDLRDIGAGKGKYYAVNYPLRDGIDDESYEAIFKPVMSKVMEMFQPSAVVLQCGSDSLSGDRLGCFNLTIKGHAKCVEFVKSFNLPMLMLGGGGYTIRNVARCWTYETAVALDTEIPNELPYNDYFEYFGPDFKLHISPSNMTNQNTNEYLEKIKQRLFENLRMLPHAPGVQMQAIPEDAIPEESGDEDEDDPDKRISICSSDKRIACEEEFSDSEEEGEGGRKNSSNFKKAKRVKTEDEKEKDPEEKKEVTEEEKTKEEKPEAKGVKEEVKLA
smiles,measurement,setting,value
"CN1CCC(n2c(=O)n(Cc3ccc(-c4nnc(C(F)F)o4)cn3)c3cc(F)c(-c4ccnn4C)cc32)CC1 [Compound 249, 1-((5-(5-(difluoromethyl)-1,3,4-oxadiazole-2-yl)pyridine-2-yl)methyl)-6-fluoro-5-(1-methyl-1H-pyrazole-5-yl)-3-(1-methylpiperidine-4-yl)-1,3-dihydro-2H-benzo[d]imidazole-2-one]",IC50,HDAC6 human recombinant,18 nM
same,IC50,HDAC1,> 10000 nM
"CN1CCC(n2c(=O)n(Cc3ccc(-c4nnc(C(F)F)o4)cn3)c3cc(F)c(-c4ccc5c(ccn5C)c4)cc32)CC1 [Compound 250, 1-((5-(5-(difluoromethyl)-1,3,4-oxadiazole-2-yl)pyridine-2-yl)methyl)-6-fluoro-5-(1-methyl-1H-indole-5-yl)-3-(1-methylpiperidine-4-yl)-1,3-dihydro-2H-benzo[d]imidazole-2-one]",IC50,HDAC6 human recombinant,18 nM
same,IC50,HDAC1,> 10000 nM
"CN1CCC(n2c(=O)n(Cc3ccc(-c4nnc(C(F)F)o4)cn3)c3cc(F)c(-c4ccc5c(ccn5C(=O)OC(C)(C)C)c4)cc32)CC1 [Compound 251, tert-butyl 5-(1-((5-(5-(difluoromethyl)-1,3,4-oxadiazole-2-yl)pyridine-2-yl)methyl)-6-fluoro-3-(1-methylpiperidine-4-yl)-2-oxo-2,3-dihydro-1H-benzo[d]imidazole-5-yl)-1H-indole-1-carboxylate]",IC50,HDAC6 human recombinant,374 nM
same,IC50,HDAC1,> 10000 nM
"Cc1cc2cc(-c3cc4c(cc3F)n(Cc3ccc(-c5nnc(C(F)F)o5)cn3)c(=O)n4C3CCN(C)CC3)ccc2n1C(=O)OC(C)(C)C [Compound 252, tert-butyl 5-(1-((5-(5-(difluoromethyl)-1,3,4-oxadiazole-2-yl)pyridine-2-yl)methyl)-6-fluoro-3-(1-methylpiperidine-4-yl)-2-oxo-2,3-dihydro-1H-benzo[d]imidazole-5-yl)-2-methyl-1H-indole-1-carboxylate]",IC50,HDAC6 human recombinant,207 nM
same,IC50,HDAC1,> 10000 nM
"CN1CCC(n2c(=O)n(Cc3ccc(-c4nnc(C(F)F)o4)cn3)c3cc(F)c(-c4cc5ccccc5n4C(=O)OC(C)(C)C)cc32)CC1 [Compound 253, tert-butyl 2-(1-((5-(5-(difluoromethyl)-1,3,4-oxadiazole-2-yl)pyridine-2-yl)methyl)-6-fluoro-3-(1-methylpiperidine-4-yl)-2-oxo-2,3-dihydro-1H-benzo[d]imidazole-5-yl)-1H-indole-1-carboxylate]",IC50,HDAC6 human recombinant,271 nM
same,IC50,HDAC1,> 10000 nM
CN1CCC(n2c(=O)n(Cc3ccc(-c4nnc(C(F)F)o4)cn3)c3cc(F)c(-c4cn(C(=O)OC(C)(C)C)c5ccc(Cl)cc45)cc32)CC1 [Compound 254],IC50,HDAC6 human recombinant,472 nM
same,IC50,HDAC1,> 10000 nM
"CN1CCC(n2c(=O)n(Cc3ccc(-c4nnc(C(F)F)o4)cn3)c3cc(F)c(-c4ccc5c(cnn5C(=O)OC(C)(C)C)c4)cc32)CC1 [Compound 255, tert-butyl 5-(1-((5-(5-(difluoromethyl)-1,3,4-oxadiazole-2-yl)pyridine-2-yl)methyl)-6-fluoro-3-(1-methylpiperidine-4-yl)-2-oxo-2,3-dihydro-1H-benzo[d]imidazole-5-yl)-1H-indazole-1-carboxylate]",IC50,HDAC6 human recombinant,48 nM
same,IC50,HDAC1,> 10000 nM
"CN1CCC(n2c(=O)n(Cc3ccc(-c4nnc(C(F)F)o4)cn3)c3cc(F)c(-c4ccc5[nH]ncc5c4)cc32)CC1 [Compound 256, 1-((5-(5-(difluoromethyl)-1,3,4-oxadiazole-2-yl)pyridine-2-yl)methyl)-6-fluoro-5-(1H-indazole-5-yl)-3-(1-methylpiperidine-4-yl)-1,3-dihydro-2H-benzo[d]imidazole-2-one]",IC50,HDAC6 human recombinant,8 nM
same,IC50,HDAC1,> 10000 nM
"CN1CC(n2c(=O)n(Cc3ccc(-c4nnc(C(F)F)o4)cn3)c3cc(F)c(-c4cccc5[nH]ccc45)cc32)C1 [Compound 257, 1-((5-(5-(difluoromethyl)-1,3,4-oxadiazole-2-yl)pyridine-2-yl)methyl)-6-fluoro-5-(1H-indole-4-yl)-3-(1-methylazetidine-3-yl)-1,3-dihydro-2H-benzo[d]imidazole-2-one]",IC50,HDAC6 human recombinant,12 nM
same,IC50,HDAC1,> 10000 nM
"CN1CC(n2c(=O)n(Cc3ccc(-c4nnc(C(F)F)o4)cn3)c3cc(F)c(-c4cccnc4)cc32)C1 [Compound 258, 1-((5-(5-(difluoromethyl)-1,3,4-oxadiazole-2-yl)pyridine-2-yl)methyl)-6-fluoro-3-(1-methylazetidine-3-yl)-5-(pyridine-3-yl)-1,3-dihydro-2H-benzo[d]imidazole-2-one]",IC50,HDAC6 human recombinant,13 nM
same,IC50,HDAC1,> 10000 nM
"CN1CC(n2c(=O)n(Cc3ccc(-c4nnc(C(F)F)o4)cn3)c3cc(F)c(-c4ccncc4)cc32)C1 [Compound 259, 1-((5-(5-(difluoromethyl)-1,3,4-oxadiazole-2-yl)pyridine-2-yl)methyl)-6-fluoro-3-(1-methylazetidine-3-yl)-5-(pyridine-4-yl)-1,3-dihydro-2H-benzo[d]imidazole-2-one]",IC50,HDAC6 human recombinant,14 nM
same,IC50,HDAC1,> 10000 nM
"CC(C)N1CCN(c2cc3c(cc2F)n(Cc2ccc(-c4nnc(C(F)F)o4)cn2)c(=O)n3C)CC1 [Compound 261, 1-((5-(5-(difluoromethyl)-1,3,4-oxadiazole-2-yl)pyridine-2-yl)methyl)-6-fluoro-5-(4-isopropylpiperazine-1-yl)-3-methyl-1,3-dihydro-2H-benzo[d]imidazole-2-one]",IC50,HDAC6 human recombinant,57 nM
same,IC50,HDAC1,> 10000 nM
"Cn1c(=O)n(Cc2ccc(-c3nnc(C(F)F)o3)cn2)c2cc(F)c(N3CCN(CC(F)(F)C(F)F)CC3)cc21 [Compound 262, 1-((5-(5-(difluoromethyl)-1,3,4-oxadiazole-2-yl)pyridine-2-yl)methyl)-6-fluoro-3-methy 1-5-(4-(2,2,3,3-tetrafluoropropyl)piperazine-1-yl)-1,3-dihydro-2H-benzo[d]imidazole-2-one]",IC50,HDAC6 human recombinant,107 nM
same,IC50,HDAC1,> 10000 nM
"Cn1c(=O)n(Cc2ccc(-c3nnc(C(F)F)o3)cn2)c2cc(F)c(N3CCN(CC(F)(F)F)CC3)cc21 [Compound 263, 1-((5-(5-(difluoromethyl)-1,3,4-oxadiazole-2-yl)pyridine-2-yl)methyl)-6-fluoro-3-methy 1-5-(4-(2,2,2-trifluoroethyl)piperazine-1-yl)-1,3-dihydro-2H-benzo[d]imidazole-2-one]",IC50,HDAC6 human recombinant,59 nM
same,IC50,HDAC1,> 10000 nM
"Cn1c(=O)n(Cc2ccc(-c3nnc(C(F)F)o3)cn2)c2cc(F)c(N3CCN(C4COC4)CC3)cc21 [Compound 264, 1-((5-(5-(difluoromethyl)-1,3,4-oxadiazole-2-yl)pyridine-2-yl)methyl)-6-fluoro-3-methy 1-5-(4-(oxetan-3-yl)piperazine-1-yl)-1,3-dihydro-2H-benzo[d]imidazole-2-one]",IC50,HDAC6 human recombinant,61 nM
same,IC50,HDAC1,> 10000 nM
"O=c1oc2cc(Cl)ccc2n1Cc1ccc(-c2nnc(C(F)F)o2)cn1 [Compound 265, 6-chloro-3-((5-(5-(difluoromethyl)-1,3,4-oxadiazole-2-yl)pyridine-2-yl)methyl)benzo[d]oxazole-2(3H)-one]",IC50,HDAC6 human recombinant,46 nM
same,IC50,HDAC1,> 10000 nM
"Cn1c(=O)n(Cc2ccc(-c3nnc(C(F)F)o3)cn2)c2cc(F)c(N3CCN(C(=O)CO)CC3)cc21 [Compound 266, 1-((5-(5-(difluoromethyl)-1,3,4-oxadiazole-2-yl)pyridine-2-yl)methyl)-6-fluoro-5-(4-(2-hydroxyacetyl)piperazine-1-yl)-3-methyl-1,3-dihydro-2H-benzo[d]imidazole-2-one]",IC50,HDAC6 human recombinant,39 nM
same,IC50,HDAC1,> 10000 nM
"O=c1n(CCN2CCOCC2)c2cc(-c3cccnc3)c(F)cc2n1Cc1ccc(-c2nnc(C(F)F)o2)cn1 [Compound 267, 1-((5-(5-(difluoromethyl)-1,3,4-oxadiazole-2-yl)pyridine-2-yl)methyl)-6-fluoro-3-(2-morpholinoethyl)-5-(pyridine-3-yl)-1,3-dihydro-2H-benzo[d]imidazole-2-one]",IC50,HDAC6 human recombinant,42 nM
same,IC50,HDAC1,> 10000 nM
